According to US8741929B2, “Methods using 3-(4-amino-1-oxo-1,3-dihydro-isoindol-2-yl)-piperidine-2,6-dione for treatment of mantle cell lymphomas” (Celgene Corporation, priority 2006, dated 2014):
Values joined by “and” are separate entries in the source; they are usually repeats but may differ in a detail not shown here. Equal entries are not always repeated.

Key:
[1] = test system: relapsed and refractory aggressive non-Hodgkin's lymphoma (NHL); assay: Phase II study of oral lenalidomide monotherapy in patients; format: in vivo, human
Protocol: A multi-center, open-label, Phase II study was conducted in patients with relapsed and refractory aggressive non-Hodgkin's lymphoma (NHL). […] Patients in the study received lenalidomide in an amount of 25mg orally once daily for days one to 21 in a 28-day cycle and continued therapy for 52 weeks as tolerated or until disease progression.
Twenty-five patients age 45 to 80 years (median age 63), with relapsed and refractory aggressive NHL, and who had received a median of 2.5 prior treatments (range: 1-6 prior treatments), were administered with lenalidomide in an amount of 25 mg orally once daily for 21 days in the treatment cycle. Sixteen patients with aggressive NHL were evaluable for tumour assessment. Of the 16 patients, eight had diffuse large cell lymphoma, three had mantle cell lymphoma, two patients had follicular lymphoma, one had transformed lymphoma, and two had aggressive lymphoma of unknown histology.

[2] = test system: relapsed or refractory mantle cell lymphoma (MCL)
Protocol: A single-center, open label, phase I/II study was conducted to determine the maximum tolerated dose (MTD) and to evaluate the efficacy of 3-(4-amino-1-oxo-1,3-dihydro-isoindol-2-yl)-piperidin-2,6-dione (lenalidomide or Revlimid®) in combination with rituximab for relapsed or refractory mantle cell lymphoma (MCL). Patients with one to four lines of prior therapy were eligible. Patients with prior treatment using thalidomide or rituximab, regardless of resistance, were eligible. […] A standard phase I dose escalation was used to determine MTD with dose levels at 10 mg, 15 mg, 20 mg, and 25 mg of Revlimid®. Dose-limiting toxicity (DLT) was defined as grade 3 or 4 non-hematologic or grade 4 hematologic toxicity during the first cycle.
Each cohort had 3 patients. […] The number of cycles given ranged from one to five cycles.

[3] = 25 mg daily, 21/28 days, 16 evaluable patients
[4] = 25 mg orally once daily days 1-21 of 28-day cycle, 16 evaluable patients
[5] = first cycle, + rituximab, number of patients/events

With `Nc1cccc2c1CN(C1CCC(=O)NC1=O)C2=O` (centres unmarked) [Revlimid®, 3-(4-amino-1-oxo-1,3-dihydro-isoindol-2-yl)-piperidine-2,6-dione] the complete response [1, 3] was “One”, the partial responses [1, 3] was “four” and the stable disease [1, 3] was “Four”. For the same compound, the “Grade 4 adverse reaction” value ([1]; 25 mg daily, 21/28 days, of 22 patients) was “three”, the “Grade 3 and 4 adverse events” value ([1]; 25 mg daily, 21/28 days, predominately haematological and Grade 3) was “ten of 22” and the objective responses [1, 4] was “five”. The “objective responses (rate)” value [1, 4] was 31 per cent, the disease progression ([1]; after a median follow-up of two months (range one to seven months)) was “Seven” and the progression free survival ([1]; one patient with diffuse large cell lymphoma, complete response) was “more than 180 days”. For the same compound, the progression free survival ([1]; one patient with follicular lymphoma, partial response) was “more than 55 days”, the progression free survival ([1]; one patient with mantle cell lymphoma, partial response) was “more than 57 days” and the progression free survival ([1]; single patients with diffuse large cell lymphoma, partial response, listed as lenalidomide) was 135 days and 242 days. For the same compound, the stable disease ([2]; at cycle 3 and cycle 5, respectively, + rituximab, seven evaluable) was “Two”, the “maximum tolerated dose (MTD)” value ([2]; dose levels up to 20 mg Revlimid + rituximab 375 mg/m^2 weekly) was “the MTD has not been reached” and the “grade 3 toxicity (thrombocytopenia) beyond the first cycle” value ([2]; during cycle 2, + rituximab, number of events) was 1. The “grade 2 anemia” value ([2]; first cycle, + rituximab) was “one”, the “Grade 1 hematologic events: anemia” value [2, 5] was 1 and the “Grade 1 hematologic events: leukopenia” value [2, 5] was 3. The “Grade 1 hematologic events: thrombocytopenia” value [2, 5] was 2, the “Grade 1 non-hematologic toxic events: fatigue” value [2, 5] was 4 and the “Grade 1 non-hematologic toxic events: myalgias” value [2, 5] was 2. For the same compound, the “Grade 1 non-hematologic toxic events: pruritis” value [2, 5] was 3, the “Grade 1 non-hematologic toxic events: stomatitis” value [2, 5] was 3 and the “Grade 2 non-hematologic toxic events: myalgias” value [2, 5] was 2. For the same compound, the “Grade 2 non-hematologic toxic events: rash” value [2, 5] was 2 and the “study conclusion on efficacy” value ([2]; particularly relapsed or refractory mantle cell lymphoma) was “effective in treating mantle cell lymphoma”.
